We go through one compound from US20260297081A1, “COMPOUNDS AND METHODS OF TREATING CANCERS” (Cullgen Inc., priority 2023, published 2026).

SMILES strings stand for the structures. Where only a bound is given, the exact number is not on record here.

Holding throughout (assay type): cell-based
The subject of assay [1] is CCND1, CCND3, and CDK4 in Calu-1 cells. The assay is described as follows: Immunoblot of CCND1, CCND3 and CDK4 protein levels in Calu-1 cells (FIG. 1A, 4 hours). The following applies: Calu-1, reduction of CCND1, CCND3, and CDK4 protein levels. The procedure: (§1) Specific exemplary heterobifunctional compounds were characterized in Calu-1, MCF7, T47D and other cells. Cells that express cyclin D1-3 and CDK4/6 proteins were treated with heterobifunctional compounds disclosed herein at indicated concentrations. MCF7 cells were deprived of serum for 2 hours followed by the treatment with heterobifunctional compounds. Cells were collected, lysed and subject to immunoblotting using an antibody specific to CCND1, CCND2, CCND3, CDK4, or FoxM1, cyclin A2, or phosphorylated Rb (S807/811) proteins. Tubulin or GAPDH was used as the loading control. DMSO treatment was used as the negative control.
Background: Immunoblotting shows a protein as a band on a membrane.

Assay [2] deals with CCND1, CCND3, and CDK4 in MCF7 cells. The assay is described as follows: Immunoblot of CCND1, CCND3 and CDK4 protein levels in MCF7 cells under serum starvation (FIG. 1B, 24 hours). The settings on record: MCF7, reduction of CCND1, CCND3, and CDK4 protein levels, serum starvation, 24 hours. Here is the method:
as §1

The test system of assay [3] is T47D cells. The assay is described as follows: Anti-proliferation (viability) of ER+ breast cancer T47D cells, 6 days (Table 7, FIG. 2B). The settings on record: Homo sapiens, 144 h; T47D cells, 6 days, 10-point serial dilution; read-out: GI IC50 in T47D. In short, it runs like this:
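Treatment length differs by line: Calu-1 cells receive degrader for 3 days, T47D cells for 6 days, each over a 10-point dilution series. A warhead-modified analogue with unchanged DDB1 binder and linker served as the non-CDK4-binding control.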

The test system of assay [4] is FoxM1. The assay is described as follows: Immunoblotting of FoxM1 protein level (FIG. 1A-1B). The settings on record: Calu-1 (4 hours), MCF7 (24 hours). Here is the method: (§2) Calu-1 cells were treated with heterobifunctional compound CPD-10, or CDK4/6 inhibitor palbociclib at indicated concentrations for 4 hours (FIG. 1A). MCF7 cells were deprived of serum for 2 hours followed by treatment with CPD-10, or palbociclib at indicated concentrations for 24 hours (FIG. 1B).
(§3) Antibody and Reagent Anti-cyclin D1 (29785), anti-cyclin D2 (3741S), anti-cyclin D3 (2936S), anti-CDK4 (127905), anti-CDK6 (3136S), anti-phospho-Rb (8516S), anti-FoxM1 (54365), anti-cyclinA2(4656S), anti-vinculin antibody (187995) antibodies were purchased from Cell Signaling Technology. HRP-conjugated anti-α-tubulin antibody and anti-α-GAPDH antibody were purchased from GNI. Media, and other cell culture reagents were purchased from Thermo Fisher Scientific. CellTiter-Glo Luminescent Assay kit was purchased from Promega.
Calu-1, T47D, MCF7, HCC1428 and other cells were cultured at 37° C. with 5% CO2 in RPMI 1640 or DMEM medium supplemented with 10% fetal bovine serum. Cells were authenticated using the short tandem repeat (STR) assays. […]
Cultured cells were washed with cold PBS once and lysed in cold RIPA buffer supplemented with protease inhibitors and phosphatase inhibitors (Beyotime Biotechnology). […] Total protein concentrations in the lysates were determined following BCA assays (Beyotime Biotechnology). […] Protein bands were quantitated using the Image Lab software provided by Bio-Rad.

Assay [5] deals with T47D cells. The assay is described as follows: Annexin V apoptosis flow cytometry, T47D (FIG. 3A). The settings on record: 6 days. The procedure: (§4) T47D cells were treated with DMSO, palbociclib, heterobifunctional compound CPD-10 for 6 days at doses approximating IC50 and IC90 concentrations as indicated (FIG. 3A). HCC1428 cells were treated with DMSO, palbociclib, heterobifunctional compound CPD-10, or its negative control compound CPD-143 for 6 days at doses approximating IC90 concentrations as indicated (FIG. 3B). Cells were harvested by trypsinization, staining was carried out using the Annexin V Apoptosis Detection Kit.
(§5) Assays were performed on the CytoFLEX Cytometer (Beckman Coulter), and data were analyzed using CytExpert software. For cell death and apoptosis analysis, cells were harvested by trypsinization, staining was carried out using the Annexin V Apoptosis Detection Kit (BD Biosciences). Briefly, cells were resuspended in 1× binding buffer and incubated with fluorochrome-conjugated Annexin V and 7-AAD for 15 min in darkness at room temperature.
In general terms: A flow cytometer gives signals particle by particle.

Assay [6] has as its system HCC1428 cells. In words: Annexin V apoptosis flow cytometry, HCC1428 (FIG. 3B). The settings on record: HCC1428, dose approximating IC90, 6 days. The procedure: as §4, §5
The target of assay [7] is CDK4 (Homo sapiens, UniProt P11802+Q16531). The assay is described as follows: Immunoblotting of CDK4 protein level in Calu-1 and MCF7 cells (FIG. 1A-1B). Further details: Cells that express cyclin D1-3 and CDK4/6 proteins were treated with heterobifunctional compounds; endogenous in cells; host or cells: Calu-1. The procedure: as §2, §3
Sequence of CDK4 (P11802 2-303 limits assumed): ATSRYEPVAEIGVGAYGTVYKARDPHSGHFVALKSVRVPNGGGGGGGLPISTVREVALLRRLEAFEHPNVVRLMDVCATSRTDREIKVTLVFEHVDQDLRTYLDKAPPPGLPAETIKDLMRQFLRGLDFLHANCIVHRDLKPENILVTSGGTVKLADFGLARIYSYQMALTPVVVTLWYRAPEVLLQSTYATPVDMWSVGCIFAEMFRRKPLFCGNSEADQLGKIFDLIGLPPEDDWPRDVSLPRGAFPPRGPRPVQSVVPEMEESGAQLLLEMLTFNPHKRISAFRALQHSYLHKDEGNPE
Sequence of CDK4 (P24385 whole entry partner): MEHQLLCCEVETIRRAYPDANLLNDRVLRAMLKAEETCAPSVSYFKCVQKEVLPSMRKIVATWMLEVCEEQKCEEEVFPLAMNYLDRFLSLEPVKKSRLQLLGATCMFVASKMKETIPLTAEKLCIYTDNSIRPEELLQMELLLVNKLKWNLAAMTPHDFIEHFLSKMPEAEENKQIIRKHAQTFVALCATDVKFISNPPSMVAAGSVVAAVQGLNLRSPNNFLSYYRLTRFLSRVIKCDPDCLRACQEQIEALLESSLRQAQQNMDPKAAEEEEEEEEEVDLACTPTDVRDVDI
Sequence of CDK4 (Q16531 2-1140 limits assumed): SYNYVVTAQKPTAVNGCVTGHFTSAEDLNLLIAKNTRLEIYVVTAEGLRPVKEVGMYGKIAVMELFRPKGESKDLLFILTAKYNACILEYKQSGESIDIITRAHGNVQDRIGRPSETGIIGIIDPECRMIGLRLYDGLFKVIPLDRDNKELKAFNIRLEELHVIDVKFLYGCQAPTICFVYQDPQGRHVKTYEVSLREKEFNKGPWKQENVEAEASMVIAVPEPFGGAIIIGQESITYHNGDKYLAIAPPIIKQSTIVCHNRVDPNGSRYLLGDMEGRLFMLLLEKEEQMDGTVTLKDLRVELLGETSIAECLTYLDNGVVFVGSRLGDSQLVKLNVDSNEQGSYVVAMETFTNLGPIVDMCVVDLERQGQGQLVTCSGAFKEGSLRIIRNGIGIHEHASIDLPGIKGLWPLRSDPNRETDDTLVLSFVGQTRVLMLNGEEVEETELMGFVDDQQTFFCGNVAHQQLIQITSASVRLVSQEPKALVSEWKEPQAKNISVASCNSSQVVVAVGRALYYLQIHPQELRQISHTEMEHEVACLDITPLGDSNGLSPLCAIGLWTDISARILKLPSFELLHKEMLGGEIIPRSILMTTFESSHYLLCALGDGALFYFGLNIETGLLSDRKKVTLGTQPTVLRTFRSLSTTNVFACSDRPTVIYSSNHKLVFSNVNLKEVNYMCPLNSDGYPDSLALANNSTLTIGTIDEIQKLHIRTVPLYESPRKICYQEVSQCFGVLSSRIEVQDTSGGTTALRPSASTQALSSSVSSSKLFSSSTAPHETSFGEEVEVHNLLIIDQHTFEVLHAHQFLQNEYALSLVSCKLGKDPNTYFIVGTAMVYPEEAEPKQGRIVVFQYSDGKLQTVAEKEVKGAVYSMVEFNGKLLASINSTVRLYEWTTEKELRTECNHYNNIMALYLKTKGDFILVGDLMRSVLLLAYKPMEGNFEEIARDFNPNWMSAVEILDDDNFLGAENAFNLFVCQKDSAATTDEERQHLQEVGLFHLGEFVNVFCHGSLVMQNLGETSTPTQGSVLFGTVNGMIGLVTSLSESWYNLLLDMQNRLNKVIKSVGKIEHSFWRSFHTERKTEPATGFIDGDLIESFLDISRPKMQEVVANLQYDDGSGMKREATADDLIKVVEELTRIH
Calu-1, T47D, MCF7, HCC1428 and other cells were cultured at 37° C. with 5% CO2 in RPMI 1640 or DMEM medium supplemented with 10% fetal bovine serum. Cells were authenticated using the short tandem repeat (STR) assays. Mycoplasma test results were negative. For palbo-resistant cell model, T47D cells were cultured long-term to resistance in the presence of 1 μM Palbociclib. Cells were deemed resistant when growing in the presence of Palbo at the same rate as parental cells.
Cultured cells were washed with cold PBS once and lysed in cold RIPA buffer supplemented with protease inhibitors and phosphatase inhibitors (Beyotime Biotechnology). The solutions were then incubated at 4 ? for 30 min with gentle agitation to fully lysed cells. Cell lysates were centrifuged at 13,000 rpm for 10 min at 4 ? and pellets were discarded. Total protein concentrations in the lysates were determined following BCA assays (Beyotime Biotechnology). Cell lysates were mixed with Laemmli loading buffer and heated at 99° C. for 5 min. Proteins were resolved on SDS-PAGE and visualized using Western ECL Substrate kits on a ChemiDoc MP Imaging system (Bio-Rad). Protein bands were quantitated using the Image Lab software provided by Bio-Rad.

As a reminder, the IC50 is the point on the concentration scale where inhibition reaches its midpoint. In the case of `CNc1ccc(C(=O)Nc2ccc(N(C)C)nn2)c(NCCCCCCCNC(=O)CN2CCN(c3ccc(Nc4ncc5c(C)c(C(C)=O)c(=O)n(C6CCCC6)c5n4)nc3)CC2)n1` [CPD-10, 2-((7-(2-(4-(6-((6-acetyl-8-cyclopentyl-5-methyl-7-oxo-7,8-dihydropyrido[2,3-d]pyrimidin-2-yl)amino)pyridin-3-yl)piperazin-1-yl)acetamido)heptyl)amino)-N-(6-(dimethylamino)pyridazin-3-yl)-6-(methylamino)nicotinamide], the values for the DC50 in assay [1] and in assay [2] were < 5 nM and < 20 nM, respectively. Also, the 50% inhibitory concentration (IC50) in assay [3] was ≤ 50 nM. Moreover, the FoxM1 protein level result in assay [4] is “inhibited downstream FoxM1 and cyclin A2 protein levels, and Rb phosphorylation in a concentration-dependent manner”. Also, the “Annexin V+ population” value in assay [5] (15 nM) is on record as 20.9%; in assay [5] (200 nM), 62.2%; in assay [6], 55.8%. Moreover, the CDK4 protein level result was “reduced CCND1, CCND3, and CDK4 protein levels in a concentration-dependent manner in both cell lines” in assay [7] (Calu-1 cells, 4 hours); “reduced CCND1, CCND3, and CDK4 protein levels in a concentration-dependent manner in both cell lines” in assay [7] (MCF7 cells, serum deprived 2 hours, treated 24 hours).
